Values of other authors in publication PMC9863266, “Preclinical Studies and Drug Combination of Low-Cost Molecules for Chagas Disease” (Pharmaceuticals, 2022).

Tested on: CL Brener clone of T. cruzi
Design: method as in PMID 26492824
Conditions: 192 µmoles/kg/day; cited from earlier work

**Q.** With `O=C(/C=C/C=C/c1ccco1)/C=C/C=C/c1ccco1` [Compound 793] as the molecule, how does the “Days Post-Infection of the First Parasitemia Peak” value read?
**A.** 22 days

**Q.** What about the “Reduction in the Parasitemia Peak (%)” value of the same molecule?
**A.** 50%

**Q.** What about the “Survival (%)” value of the same molecule?
**A.** 83%
